In ChEMBL document CHEMBL3797029, “Purinylpyridinylamino-based DFG-in/αC-helix-out B-Raf inhibitors: Applying mutant versus wild-type B-Raf selectivity indices for compound profiling” (Bioorg Med Chem, 2016):

Columns and labels:
MIA PaCa-2 = test: Selectivity index, ratio of EC50 for wild type B-Raf in human MIAPaCa2 cells to IC50 for B-Raf V600E mutant in human A375 cells; type: cell-based
[1] = target: T1, Serine/threonine-protein kinase B-raf (Homo sapiens, UniProt P15056, V600E); test: Inhibition of B-Raf V600E mutant in human A375 cells assessed as ERK phosphorylation preincubated for 1 hr by Western blot method; type: cell-based, A-375
[2] = target: T1, Serine/threonine-protein kinase B-raf; test: Inhibition of B-Raf V600E mutant (unknown origin) assessed as MEK1 phosphorylation using MEK1-Avitag as substrate after 1 hr by HTRF assay
[3] = target: T2, Serine/threonine-protein kinase B-raf (Homo sapiens, UniProt P15056); test: Inhibition of wild type B-Raf in human MIAPaCa2 cells assessed as reduction in ERK phosphorylation preincubated for 1 hr by Western blot method; type: cell-based, MIA PaCa-2
[4] = target: T2, Serine/threonine-protein kinase B-raf; test: Inhibition of wild type B-Raf (unknown origin) assessed as MEK1 phosphorylation using MEK1-Avitag as substrate after 1 hr by HTRF assay

T1 sequence (P15056 2-766 V600E limits assumed): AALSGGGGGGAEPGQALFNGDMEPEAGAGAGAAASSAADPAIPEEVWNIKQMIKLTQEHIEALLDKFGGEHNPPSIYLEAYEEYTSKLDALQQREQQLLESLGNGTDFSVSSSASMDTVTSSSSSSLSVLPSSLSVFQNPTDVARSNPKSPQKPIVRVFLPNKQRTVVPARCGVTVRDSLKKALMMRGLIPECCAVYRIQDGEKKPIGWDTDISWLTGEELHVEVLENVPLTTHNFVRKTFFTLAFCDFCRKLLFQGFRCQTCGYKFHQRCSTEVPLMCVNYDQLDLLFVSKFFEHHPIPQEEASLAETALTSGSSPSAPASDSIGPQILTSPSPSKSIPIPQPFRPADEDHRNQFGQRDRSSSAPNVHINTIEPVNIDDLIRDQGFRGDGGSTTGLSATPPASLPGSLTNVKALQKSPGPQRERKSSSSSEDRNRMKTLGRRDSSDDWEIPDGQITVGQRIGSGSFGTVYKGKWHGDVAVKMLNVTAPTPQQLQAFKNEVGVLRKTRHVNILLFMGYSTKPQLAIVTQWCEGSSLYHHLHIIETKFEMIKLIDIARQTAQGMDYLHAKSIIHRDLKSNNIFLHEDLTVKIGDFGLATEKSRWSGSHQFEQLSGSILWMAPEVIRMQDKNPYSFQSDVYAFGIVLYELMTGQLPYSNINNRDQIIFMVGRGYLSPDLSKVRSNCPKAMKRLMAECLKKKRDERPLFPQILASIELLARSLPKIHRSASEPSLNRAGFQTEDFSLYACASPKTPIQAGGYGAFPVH
T2 sequence (P15056 whole entry): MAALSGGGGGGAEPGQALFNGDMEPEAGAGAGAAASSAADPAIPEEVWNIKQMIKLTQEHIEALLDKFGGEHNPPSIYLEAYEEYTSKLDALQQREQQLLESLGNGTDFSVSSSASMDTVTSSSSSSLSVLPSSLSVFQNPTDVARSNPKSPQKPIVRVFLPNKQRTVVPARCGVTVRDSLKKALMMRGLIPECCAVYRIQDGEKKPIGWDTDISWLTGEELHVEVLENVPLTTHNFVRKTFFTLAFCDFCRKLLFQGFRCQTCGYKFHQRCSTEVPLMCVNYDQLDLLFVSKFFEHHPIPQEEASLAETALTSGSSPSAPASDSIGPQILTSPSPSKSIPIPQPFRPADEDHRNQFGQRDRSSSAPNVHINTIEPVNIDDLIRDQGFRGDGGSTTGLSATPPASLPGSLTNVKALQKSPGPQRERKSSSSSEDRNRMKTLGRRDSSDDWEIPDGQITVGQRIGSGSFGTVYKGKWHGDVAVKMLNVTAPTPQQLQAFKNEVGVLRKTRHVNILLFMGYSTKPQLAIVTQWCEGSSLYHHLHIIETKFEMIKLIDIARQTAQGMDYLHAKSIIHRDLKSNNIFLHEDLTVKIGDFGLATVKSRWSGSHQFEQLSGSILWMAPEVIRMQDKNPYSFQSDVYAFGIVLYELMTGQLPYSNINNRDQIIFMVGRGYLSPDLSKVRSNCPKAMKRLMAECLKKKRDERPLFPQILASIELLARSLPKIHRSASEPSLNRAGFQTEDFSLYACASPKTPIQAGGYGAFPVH

With O=S(=O)(Nc1ccc(F)c(Nc2ncccc2-c2ncnc3[nH]cnc23)c1F)C1CCOC1 (stereo not given) the Ratio (MIA PaCa-2) was 48, the IC50 [1] was 0.031 µM and the IC50 [2] was 0.005 µM. The EC50 [3] was 1.48 µM and the IC50 [4] was 0.026 µM.
O=S(=O)(Nc1ccc(F)c(Nc2ncccc2-c2ncnc3[nH]cnc23)c1F)N1CCNCC1 was tested, and the IC50 [1] was 1 µM, the IC50 [2] was > 1 µM and the IC50 [4] was > 1 µM.
In the case of CCCS(=O)(=O)Nc1ccc(F)c(Nc2ncccc2-c2ncnc3[nH]cnc23)c1F, the Ratio (MIA PaCa-2) is reported as 39, the IC50 [1] is reported as 0.024 µM and the IC50 [2] is reported as 0.009 µM. The EC50 [3] was 0.936 µM and the IC50 [4] was 0.012 µM.
O=S(=O)(Nc1ccc(F)c(Nc2ncccc2-c2ncnc3[nH]cnc23)c1F)c1cccs1 showed a Ratio (MIA PaCa-2) of 57, an IC50 [1] of 0.007 µM and an IC50 [2] of 0.001 µM. The EC50 [3] was 0.402 µM and the IC50 [4] was 0.0005 µM.
Molecule O=S(=O)(Nc1ccc(F)c(Nc2ncccc2-c2ncnc3[nH]cnc23)c1F)C1CC1 has a Ratio (MIA PaCa-2) of 12, an IC50 [1] of 0.173 µM and an IC50 [2] of 0.041 µM. The EC50 [3] was 2.07 µM and the IC50 [4] was 0.132 µM.
CCN(C)S(=O)(=O)Nc1ccc(F)c(Nc2ncccc2-c2ncnc3[nH]cnc23)c1F showed a Ratio (MIA PaCa-2) of 20, an IC50 [1] of 0.087 µM and an IC50 [2] of 0.022 µM. The EC50 [3] was 1.78 µM and the IC50 [4] was 0.157 µM.
With O=S(=O)(Nc1ccc(F)c(Nc2ncccc2-c2ncnc3[nH]cnc23)c1F)C1CCCCC1 the Ratio (MIA PaCa-2) was 109, the IC50 [1] was 0.04 µM and the IC50 [2] was 0.018 µM. It also gave an EC50 [3] of 4.37 µM and an IC50 [4] of 0.051 µM.
O=S(=O)(Nc1ccc(F)c(Nc2ncccc2-c2ncnc3[nH]cnc23)c1F)c1ccccn1 was tested, and the Ratio (MIA PaCa-2) was 45, the IC50 [1] was 0.177 µM and the IC50 [2] was 0.021 µM. The EC50 [3] was 7.94 µM and the IC50 [4] was 0.041 µM.
CCC(C)S(=O)(=O)Nc1ccc(F)c(Nc2ncccc2-c2ncnc3[nH]cnc23)c1F (stereo not given) gave a Ratio (MIA PaCa-2) of 29, an IC50 [1] of 0.027 µM and an IC50 [2] of 0.007 µM. It also gave an EC50 [3] of 0.778 µM and an IC50 [4] of 0.038 µM.
In the case of O=S(=O)(Nc1ccc(F)c(Nc2ncccc2-c2ncnc3[nH]cnc23)c1F)c1cccc(F)c1, the Ratio (MIA PaCa-2) is reported as 101, the IC50 [1] is reported as 0.015 µM and the IC50 [2] is reported as 0.003 µM. It also gave an EC50 [3] of 1.51 µM and an IC50 [4] of 0.004 µM.
O=S(=O)(Nc1ccc(F)c(Nc2ncccc2-c2ncnc3[nH]cnc23)c1F)c1ccccc1F was tested, and the Ratio (MIA PaCa-2) was 73, the IC50 [1] was 0.012 µM and the IC50 [2] was 0.003 µM. The EC50 [3] was 0.873 µM and the IC50 [4] was 0.01 µM.
O=S(=O)(Cc1ccccc1)Nc1ccc(F)c(Nc2ncccc2-c2ncnc3[nH]cnc23)c1F was tested, and the IC50 [1] was > 1 µM, the IC50 [2] was 0.186 µM and the EC50 [3] was 5.08 µM. It also gave an IC50 [4] of 0.111 µM.
CC(C)S(=O)(=O)Nc1ccc(F)c(Nc2ncccc2-c2ncnc3[nH]cnc23)c1F gave a Ratio (MIA PaCa-2) of 34, an IC50 [1] of 0.045 µM and an IC50 [2] of 0.014 µM. It also gave an EC50 [3] of 1.54 µM and an IC50 [4] of 0.066 µM.
O=S(=O)(Nc1ccc(F)c(Nc2ncccc2-c2ncnc3[nH]cnc23)c1F)N1CC[C@H](O)C1 showed an IC50 [1] of 0.201 µM, an IC50 [2] of 0.009 µM and an IC50 [4] of 0.122 µM.
CC(C)(C)CS(=O)(=O)Nc1ccc(F)c(Nc2ncccc2-c2ncnc3[nH]cnc23)c1F showed a Ratio (MIA PaCa-2) of 3, an IC50 [1] of 0.063 µM and an IC50 [2] of 0.006 µM. For the same molecule, the EC50 [3] was 0.202 µM and the IC50 [4] was 0.005 µM.
In the case of O=S(=O)(Nc1ccc(F)c(Nc2ncccc2-c2ncnc3[nH]cnc23)c1F)c1cccnc1, the Ratio (MIA PaCa-2) is reported as 79, the IC50 [1] is reported as 0.01 µM and the IC50 [2] is reported as 0.001 µM. It also gave an EC50 [3] of 0.786 µM and an IC50 [4] of 0.001 µM.
With CS(=O)(=O)Nc1ccc(F)c(Nc2ncccc2-c2ncnc3[nH]cnc23)c1F the Ratio (MIA PaCa-2) was 19, the IC50 [1] was 0.356 µM and the IC50 [2] was 0.36 µM. The EC50 [3] was 6.69 µM and the IC50 [4] was 0.412 µM.
Work on Cn1cc(S(=O)(=O)Nc2ccc(F)c(Nc3ncccc3-c3ncnc4[nH]cnc34)c2F)cn1 yielded a Ratio (MIA PaCa-2) of 3, an IC50 [1] of 0.71 µM and an IC50 [2] of 0.008 µM. For the same molecule, the EC50 [3] was 2.22 µM and the IC50 [4] was 0.019 µM.
O=S(=O)(Nc1ccc(F)c(Nc2ncccc2-c2ncnc3[nH]cnc23)c1F)c1nccs1 showed a Ratio (MIA PaCa-2) of 25, an IC50 [1] of 0.031 µM and an IC50 [2] of 0.001 µM. For the same molecule, the EC50 [3] was 0.783 µM and the IC50 [4] was 0.002 µM.
In the case of O=S(=O)(Nc1ccc(F)c(Nc2ncccc2-c2ncnc3[nH]cnc23)c1F)N1CC[C@@H](O)C1, the Ratio (MIA PaCa-2) is reported as 31, the IC50 [1] is reported as 0.233 µM and the IC50 [2] is reported as 0.016 µM. It also gave an EC50 [3] of 7.19 µM and an IC50 [4] of 0.068 µM.
With O=S(=O)(Nc1ccc(F)c(Nc2ncccc2-c2ncnc3[nH]cnc23)c1F)C1CCOCC1 the IC50 [1] was 0.356 µM, the IC50 [2] was 0.031 µM and the IC50 [4] was 0.179 µM.
Molecule O=S(=O)(Nc1ccc(F)c(Nc2ncccc2-c2ncnc3[nH]cnc23)c1F)N1CCOCC1 has a Ratio (MIA PaCa-2) of 12, an IC50 [1] of 0.293 µM and an IC50 [2] of 0.062 µM. For the same molecule, the EC50 [3] was 3.58 µM and the IC50 [4] was 0.102 µM.
CCN(CC)S(=O)(=O)Nc1ccc(F)c(Nc2ncccc2-c2ncnc3[nH]cnc23)c1F was tested, and the Ratio (MIA PaCa-2) was 16, the IC50 [1] was 0.603 µM and the IC50 [2] was 0.057 µM. The EC50 [3] was 9.91 µM and the IC50 [4] was 0.165 µM.
For O=S(=O)(Nc1ccc(F)c(Nc2ncccc2-c2ncnc3[nH]cnc23)c1F)N1CCCCC1, the Ratio (MIA PaCa-2) was 19, the IC50 [1] was 0.065 µM and the IC50 [2] was 0.015 µM. For the same molecule, the EC50 [3] was 1.22 µM and the IC50 [4] was 0.038 µM.
In the case of O=S(=O)(Nc1ccc(F)c(Nc2ncccc2-c2ncnc3[nH]cnc23)c1F)c1ccccc1, the Ratio (MIA PaCa-2) is reported as 82, the IC50 [1] is reported as 0.028 µM and the IC50 [2] is reported as 0.007 µM. The EC50 [3] was 2.29 µM and the IC50 [4] was 0.017 µM.
For O=S(=O)(Nc1ccc(F)c(Nc2ncccc2-c2ncnc3[nH]cnc23)c1F)C1CCC1, the Ratio (MIA PaCa-2) was 44, the IC50 [1] was 0.041 µM and the IC50 [2] was 0.004 µM. It also gave an EC50 [3] of 1.79 µM and an IC50 [4] of 0.046 µM.
In the case of O=S(=O)(CC1CC1)Nc1ccc(F)c(Nc2ncccc2-c2ncnc3[nH]cnc23)c1F, the Ratio (MIA PaCa-2) is reported as 65, the IC50 [1] is reported as 0.033 µM and the IC50 [2] is reported as 0.008 µM. It also gave an EC50 [3] of 2.14 µM and an IC50 [4] of 0.026 µM.
With O=S(=O)(Nc1ccc(F)c(Nc2ncccc2-c2ncnc3[nH]cnc23)c1F)c1ccc(F)cc1 the Ratio (MIA PaCa-2) was 23, the IC50 [1] was 0.242 µM and the IC50 [2] was 0.036 µM. It also gave an EC50 [3] of 5.65 µM and an IC50 [4] of 0.083 µM.
For Cc1n[nH]c(C)c1S(=O)(=O)Nc1ccc(F)c(Nc2ncccc2-c2ncnc3[nH]cnc23)c1F, the IC50 [1] was > 1 µM and the IC50 [2] was 0.216 µM.
Work on O=S(=O)(Nc1ccc(F)c(Nc2ncccc2-c2ncnc3[nH]cnc23)c1F)N1CCCC1 yielded a Ratio (MIA PaCa-2) of 47, an IC50 [1] of 0.044 µM and an IC50 [2] of 0.002 µM. For the same molecule, the EC50 [3] was 2.07 µM and the IC50 [4] was 0.031 µM.
With CC(C)CS(=O)(=O)Nc1ccc(F)c(Nc2ncccc2-c2ncnc3[nH]cnc23)c1F the Ratio (MIA PaCa-2) was 85, the IC50 [1] was 0.017 µM and the IC50 [2] was 0.006 µM. It also gave an EC50 [3] of 1.45 µM and an IC50 [4] of 0.016 µM.
Work on O=S(=O)(Nc1ccc(F)c(Nc2ncccc2-c2ncnc3[nH]cnc23)c1F)C1CCCC1 yielded a Ratio (MIA PaCa-2) of 164, an IC50 [1] of 0.011 µM and an IC50 [2] of 0.002 µM. For the same molecule, the EC50 [3] was 1.8 µM and the IC50 [4] was 0.021 µM.
Work on CCCC(C)S(=O)(=O)Nc1ccc(F)c(Nc2ncccc2-c2ncnc3[nH]cnc23)c1F (stereo not given) yielded a Ratio (MIA PaCa-2) of 62, an IC50 [1] of 0.13 µM and an IC50 [2] of 0.018 µM. For the same molecule, the EC50 [3] was 8.09 µM and the IC50 [4] was 0.112 µM.
With O=S(=O)(CC(F)(F)F)Nc1ccc(F)c(Nc2ncccc2-c2ncnc3[nH]cnc23)c1F the Ratio (MIA PaCa-2) was 18, the IC50 [1] was 0.04 µM and the IC50 [2] was 0.003 µM. For the same molecule, the EC50 [3] was 0.713 µM and the IC50 [4] was 0.01 µM.
O=S(=O)(Nc1ccc(F)c(Nc2ncccc2-c2ncnc3[nH]cnc23)c1F)c1cn[nH]c1 was tested, and the Ratio (MIA PaCa-2) was 135, the IC50 [1] was 0.006 µM and the IC50 [2] was 0.0002 µM. The EC50 [3] was 0.807 µM and the IC50 [4] was 0.001 µM.
